Values joined by “and” are separate entries in the source; they are usually repeats but may differ in a detail not shown here. Equal values may be shown once. “Also recorded” adds a separate entry of the source.
Tests used:
[1] = Daily urinary nitrogen losses of intravenously infused rats; format: in vivo, rat (male Sprague-Dawley); details: Table 2, Example 2
Procedure: (§1) Water was available ad libitum at all times.
(§2) The vein was then ligated dorsally to the catheter. […] Body weights were measured daily.
(§3) Infusate volume, oral food intake, body weight and urinary volume and total nitrogen were monitored daily for each rat. Infusate volume and food intake were determined by weighing the appropriate container at the start and end of each 24 hr. period. Measurements were recorded between 9 and 10 AM each day. At the end of the 7th day, rats were sacrificed, and blood and liver were harvested. Plasma was separated for measurement of free fatty acids, glucose, and ketone bodies. Liver was weighed and a sample was fixed in buffered formalin for gross histology.
(§4) The data were analyzed for significance by the one-way analysis of variance with repeated measures and comparing the effect of dietary treatment on each day. […] The null hypothesis was concluded invalid if p≤0.05. The analysis of variance was computed on a SAS statistical package. […]

[2] = Plasma free fatty acids, glucose and ketone bodies after 7 days of infusion; format: in vivo, rat (male Sprague-Dawley); details: end of day 7; for ACAC / BOHB / FFa / Glucose / Ratio: A/B / T.KB: Table 5, Example 2; for T.KB: total ketone bodies
Procedure: as §3
(§5) The data were analyzed for significance by the one-way analysis of variance with repeated measures and comparing the effect of dietary treatment on each day. […] The null hypothesis was concluded invalid if p≤0.05. The analysis of variance was computed on a SAS statistical package.

[3] = Liver weight after 7 days of infusion; format: in vivo, rat (male Sprague-Dawley); details: for Liver/100 GM / Liver Wt.: Table 5, Example 2; for Liver/100 GM: as percentage of body weight
Procedure: as §3, §4

[4] = Mortality and gross toxicity on intravenous infusion; details: Example 2; 12.5 g/100 mL in 0.9% saline, 50 mL/day i.v.
Procedure: as §1, §2

[5] = Oral dietary nitrogen (food) intake of intravenously infused rats; format: in vivo, rat (male Sprague-Dawley); details: for Dietary Nitrogen Intake: Table 1, Example 2
Procedure: as §1, §2, §3, §5
This compound has an estimated energy density of 4.86 kcal/gram based on thermodynamic data from similar compounds.

[6] = Overall evaluation as a parenteral nutrient; format: in vivo, rat (male Sprague-Dawley); details: in words
Procedure: as §1, §2, §3, §5

[7] = day 2, individual rat, listed as BISACETOACETYLGLYCEROL
[8] = day 3, individual rat, listed as BISACETOACETYLGLYCEROL
[9] = day 4, individual rat, listed as BISACETOACETYLGLYCEROL
[10] = day 5, individual rat, listed as BISACETOACETYLGLYCEROL
[11] = day 6, individual rat, listed as BISACETOACETYLGLYCEROL
[12] = day 7, individual rat, listed as BISACETOACETYLGLYCEROL

Glycerol bis-acetoacetate [Compound 1]
Urinary Nitrogen [1, 7]: 315.78 mg and 264.22 mg and 139.27 mg and 174.34 mg and 187.22 mg and 165.19 mg and 94.71 mg | Urinary Nitrogen ([1]; day 3, average of 7 rats): 137 mg | Urinary Nitrogen [1, 8]: 181.94 mg and 142.42 mg and 62.97 mg and 164.52 mg and 162.29 mg and 140.13 mg and 104.72 mg | Urinary Nitrogen ([1]; day 4, average of 7 rats): 173 mg | Urinary Nitrogen [1, 9]: 294.68 mg and 253.62 mg and 47.06 mg and 193.72 mg and 139.67 mg and 115.59 mg and 168.33 mg | Urinary Nitrogen ([1]; day 5, average of 7 rats): 215 mg | Urinary Nitrogen [1, 10]: 289.81 mg and 303.16 mg and 254.66 mg and 144.16 mg and 274.72 mg and 97.81 mg and 142.32 mg | Urinary Nitrogen ([1]; day 6, average of 7 rats): 195 mg | Urinary Nitrogen [1, 11]: 283.02 mg and 191.83 mg and 11.17 mg and 134.85 mg and 378.79 mg and 184.37 mg and 179.01 mg | Urinary Nitrogen ([1]; day 7, average of 7 rats): 219 mg | Urinary Nitrogen [1, 12]: 381.14 mg and 194.98 mg and 152.92 mg and 192.67 mg and 269.64 mg and 203.37 mg and 138.8 mg | ACAC ([2]; plasma, average of 7 rats): 0.716 mmol/L | BOHB ([2]; plasma, average of 7 rats): 0.776 mmol/L | FFa ([2]; plasma, average of 7 rats): 0.563 mmol/L | Glucose ([2]; plasma, average of 7 rats): 117.789 mg/dL | Ratio: A/B ([2]; plasma, average of 7 rats): 1.171 | ACAC ([2]; plasma, individual rat): 0.982 mmol/L and 0.851 mmol/L and 0.939 mmol/L and 0.447 mmol/L and 0.869 mmol/L and 0.550 mmol/L and 0.377 mmol/L | BOHB ([2]; plasma, individual rat): 0.797 mmol/L and 0.770 mmol/L and 1.059 mmol/L and 0.529 mmol/L and 1.021 mmol/L and 0.404 mmol/L and 0.849 mmol/L | FFa ([2]; plasma, individual rat): 0.540 mmol/L and 0.574 mmol/L and 0.745 mmol/L and 0.466 mmol/L and 0.483 mmol/L and 0.615 mmol/L and 0.519 mmol/L | Glucose ([2]; plasma, individual rat): 94.920 mg/dL and 149.000 mg/dL and 114.200 mg/dL and 163.500 mg/dL and 89.000 mg/dL and 122.100 mg/dL and 91.800 mg/dL | Ratio: A/B ([2]; plasma, individual rat): 0.812 and 0.905 and 1.128 and 1.185 and 1.175 and 0.735 and 2.254 | T.KB ([2]; plasma, average of 7 rats): 1.492 mmol/L | T.KB ([2]; plasma, individual rat): 1.779 mmol/L and 1.621 mmol/L and 1.998 mmol/L and 0.976 mmol/L and 1.890 mmol/L and 0.954 mmol/L and 1.226 mmol/L | blood / plasma glucose ([2]; in words): normal blood glucose; also recorded: did not have the hyperglycemia associated with glucose infusion | free fatty acid concentration ([2]; in words, plasma): not different for the three groups | ketone bodies ([2]; in words, plasma): elevated; also recorded: approximately the maximum associated with total fasting in the rat | Liver/100 GM ([3]; average of 7 rats): 3.223 | Liver/100 GM ([3]; individual rat): 2.859 and 3.494 and 3.130 and 3.795 and 2.482 and 3.183 and 3.620 | Liver Wt. ([3]; end of day 7, average of 7 rats): 8.603 Grams | Liver Wt. ([3]; end of day 7, individual rat): 7.12 Grams and 9.12 Grams and 7.92 Grams and 11.65 Grams and 6.85 Grams and 8.69 Grams and 8.87 Grams | liver weight and percentage liver weight ([3]; in words, end of day 7): similarity between glucose infused and experimental compound infused rats liver | rats died from causes unknown [4]: Five | Dietary Nitrogen Intake ([5]; day 1, individual rat, listed as BISACETOACETYLGLYCEROL): 118.44 MG N and 125.02 MG N and 138.18 MG N and 611.94 MG N and 250.04 MG N and 151.34 MG N | Dietary Nitrogen Intake [5, 7]: 342.16 MG N and 434.28 MG N and 131.6 MG N and 519.82 MG N and 447.44 MG N and 322.42 MG N | Dietary Nitrogen Intake [5, 8]: 302.68 MG N and 631.68 MG N and 105.28 MG N and 447.44 MG N and 473.76 MG N and 263.2 MG N | Dietary Nitrogen Intake [5, 9]: 671.16 MG N and 638.26 MG N and 78.96 MG N and 579.04 MG N and 414.54 MG N and 407.96 MG N and 388.22 MG N | Dietary Nitrogen Intake [5, 10]: 559.3 MG N and 572.46 MG N and 230.3 MG N and 388.22 MG N and 618.52 MG N and 269.78 MG N and 296.1 MG N | Dietary Nitrogen Intake ([5]; day 6, average of 7 rats): 361 MG N | Dietary Nitrogen Intake [5, 11]: 539.56 MG N and 230.3 MG N and 59.22 MG N and 375.06 MG N and 625.1 MG N and 414.54 MG N and 282.94 MG N | Dietary Nitrogen Intake [5, 12]: 565.88 MG N and 263.2 MG N and 151.34 MG N and 421.12 MG N and 644.84 MG N and 473.76 MG N and 203.98 MG N | differences in dietary nitrogen intake among the three groups ([5]; in words, vs saline and other groups, 7 days): no differences in dietary nitrogen intake among the three groups | efficacy as parenteral nutrient / energy source [6]: providing significant energy beyond that which was available from oral dietary intake | efficacy as parenteral nutrient / energy source ([6]; listed as 1,2- and 1,3-bisacetoacetyl glycerol): unexpectedly high nutrient activity

— patent US5420335A, “Parenteral nutrients based on watersoluble glycerol bisacetoacetates” (priority 1993, dated 1995)
